In patent US20250170100A1, “MONOACYLGLYCEROL LIPASE INHIBITORS AND USE THEREOF FOR THE TREATMENT OF ANXIETY AND RELATED CONDITIONS” (Psy Therapeutics, Inc., priority 2021, published 2025):
Read-outs that look alike come from different tables or passages of the source. Blank lines part the entries; values can stand above or below the compound they belong to.

Tests used:
human MAGL [1] = biological target: T1, human MAGL (Homo sapiens (Human), UniProt Q99685); experiment: MAGL inhibition potency assay with 4NPA substrate (methods of Table C); format: biochemical; details: Method 1: Reaction Biology MAGL enzyme, 6 nM; read-out: MAGL Potency (Detection Method)
Description: Cayman's Monoacylglycerol Lipase Inhibitor Screening Assay provides a method for screening human MAGL inhibitors. MAGL hydrolyzes 4-nitrophenylacetate resulting in a yellow product, 4-nitrophenol, with an absorbance of 405-412 nm. The monoacylglycerol lipase inhibitor screening assay kit from Cayman Chemical was used to measure the MAGL potency for the compounds in Table 3 and Table 4. Cayman's Monoacylglycerol Lipase Inhibitor Screening Assay provides a method for screening human MAGL inhibitors. MAGL hydrolyzes 4-nitrophenylacetate resulting in a yellow product, 4-nitrophenol, with an absorbance of 405-412 nm. MAGL Inhibition was measured by the following assay. Monoacylglycerol Lipase (MAGL) inhibition was measured using recombinant MAGL enzyme (aa 2-303 RBC, internal preparation) and the substrate 4-Nitrophenyl acetate (4NPA) (Sigma-Aldrich, N8130). Hydrolysis of the substrate in the presence of the enzyme was measured by absorbance at 405 nm. 10 μL of assay buffer (10 mM Tris pH 7.5, 1 mM EDTA, 0.9% DMSO) was added to a black 384-well non-binding plate with clear bottom (Greiner, 781906) for each reaction. […] DMSO control wells were included for reference. A 10.8 nM (1.8×) MAGL mix in assay buffer was prepared, with […] added to each reaction well, for a final assay concentration of 6 nM. No enzyme wells received 25 μL of buffer. Plate was incubated at room temperature for 30 minutes. 35 mM solution of 4NPA in methanol was prepared daily. A 4.5×4NPA substrate solution was prepared in assay buffer and 10 μL was added to each reaction well, for a final assay concentration of 0.25 mM. Plate was spun for 1 minute at 1000 rpm before measuring absorbance using a CLARIOstar plate reader (BMG Labtech). A kinetic reading at 405 nm was done every minute for 30 minutes. Data was analyzed using the linear slope of the reaction progress curve and the average of the no-enzyme wells (background) was subtracted from the data. The background-subtracted slope data was converted to % activity using the average of wells with enzyme and DMSO vehicle. IC50s were calculated using GraphPad software (Sigmoidal dose response, variable slope equation). […] Table 5 provides potency measurements of MAGL inhibition measured using the Potency Assay of Example 18 above, with the following modifications described in Table C. [table]
Target sequence in this assay (Q99685 2-303): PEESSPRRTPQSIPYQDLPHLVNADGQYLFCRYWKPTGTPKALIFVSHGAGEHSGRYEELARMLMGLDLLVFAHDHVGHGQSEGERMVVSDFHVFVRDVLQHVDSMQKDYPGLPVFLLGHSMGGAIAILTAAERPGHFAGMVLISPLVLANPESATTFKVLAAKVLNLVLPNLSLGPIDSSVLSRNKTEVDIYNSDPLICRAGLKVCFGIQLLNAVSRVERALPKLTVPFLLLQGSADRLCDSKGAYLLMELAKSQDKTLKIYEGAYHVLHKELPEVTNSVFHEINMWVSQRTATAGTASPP

human MAGL [2] = biological target: T1, human MAGL; experiment: MAGL reversible inhibition assay (washout); format: biochemical; details: for A: degree to which MAGL enzymatic activity returned following washout: pre-washout compound concentration: 1 μM; for B: % MAGL activity returning after washout: relative to control, immediately following a 30 minute washout
Protocol: The reversible mechanism of MAGL inhibition of a test compound of Formula (I) can be determined. Flag-tagged MAGL enzyme will be immobilized on anti-Flag beads. Immobilized enzyme will be incubated+/−inhibitor at a dose that produces complete inhibition. Colorimetric substrate (4-NPA) will be added and the reaction monitored on a plate reader for 30 minutes to verify complete inhibition. Immobilized enzyme will then be washed thoroughly to remove the inhibitor, and fresh substrate will be added. The reaction will be monitored for an additional 30 minutes; returning enzymatic activity will indicate reversibility of inhibition.
MAGL enzyme was incubated for 30 minutes in the presence of 40× the IC50 concentration of inhibitor. Enzyme+inhibitor mix was then diluted 40-fold so that the final concentration of the inhibitor equaled the IC50 concentration. Substrate was added and the reaction was monitored for 30 minutes.
Target sequence in this assay (Q99685 whole entry): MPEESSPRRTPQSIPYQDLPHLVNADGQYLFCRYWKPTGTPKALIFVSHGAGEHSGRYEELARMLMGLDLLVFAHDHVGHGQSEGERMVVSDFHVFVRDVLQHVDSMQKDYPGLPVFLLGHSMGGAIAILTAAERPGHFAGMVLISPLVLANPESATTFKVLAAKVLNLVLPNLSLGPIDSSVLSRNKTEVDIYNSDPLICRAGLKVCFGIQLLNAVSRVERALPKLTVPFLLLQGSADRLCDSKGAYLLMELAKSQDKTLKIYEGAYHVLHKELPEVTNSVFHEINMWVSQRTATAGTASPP

2-AG levels in brain = experiment: 2-AG estimation in mouse brain after single intraperitoneal administration of Compound 74; format: in vivo, male C57BL/6 mice; details: for Mean 2AG Brain Concentration: 0.5 h
Protocol: (§1) This experiment was performed to determine plasma pharmacokinetics and estimate 2-AG levels in male C57BL/6 mice brain following a single intraperitoneal administration of Compound-74 (Dose: 5, 15, 50 and 150 mg/kg). The experiment was repeated at 150 mg/kg on 3 separate test dates to obtain the data shown in FIG. 1A (plasma and brain concentration of Compound 74 30 minutes after IP injection), and on the first and third test dates to obtain the data shown in FIG. 1B (brain concentration of 2-AG30 minutes after IP injection of Compound 74).
(§2) Study Design: A total of thirty male mice were used into the study and divided in to five groups with six mice in each group (n=6 mice/group/treatment design). Animals in Group 1 to Group 4 were administered intraperitoneally with Compound 74 solution formulation at 5, 15, 50 and 150 mg/kg dose, respectively. Animals in Group 5 were administered intraperitoneally with vehicle at 2 mL/kg dose. Blood and brain samples were collected at 0.5 h post dose. Mice were euthanized by cervical dislocation and brain samples were dissected rapidly and snap frozen in liquid nitrogen, weighed and homogenized in 2 mL of acetonitrile containing 2-AGd5. Blood samples were centrifuged at 4000 rpm for 10 minutes at 4° C. Plasma was harvested and separated in pre-labeled tubes. All samples were stored below −70° C. until bioanalysis.
(§3) Analysis: Brain samples were processed for 2-AG estimation. 2-AG levels were the detected values. Plasma concentrations were determined by fit for purpose LC-MS/MS method. LLOQ: 5.09 ng/mL (Plasma and brain)

[3] = Plasma and brain concentrations after single intraperitoneal administration of Compound 74; format: in vivo, male C57BL/6 mice; details: male, C57BL/6, mouse; for Kp at 0.5 h: brain/plasma, read-out: Brain Plama Ratio (Kp) range
Protocol: as §1, §2, §3

human MAGL [4] = biological target: T1, human MAGL; experiment: MAGL inhibition potency assay with 4NPA substrate (methods of Table C); format: biochemical
Target sequence in this assay (Q99685 2-303): as the sequence (Q99685 2-303) above

human recombinant FAAH = human recombinant FAAH (Homo sapiens (Human), UniProt O00519); experiment: FAAH counter screen (Fatty Acid Amide Hydrolase Inhibitor Screening Assay Kit); format: biochemical
Protocol: MAGL inhibitor compounds were also counter-screened for FAAH inhibition potency using the following assay. Assessment of FAAH inhibition was performed using Fatty Acid Amide Hydrolase Inhibitor Screening Assay Kit (Cayman Item No. 10005196) following manufacture's instruction with some modifications. The kit utilizes human recombinant FAAH and the fluorescent substrate, AMC Arachidonoyl amide (AAMCA). 5 μL of assay buffer (125 mM Tris, pH 9.0, 1 mM EDTA, i.e. ethylenediaminetetraacetic acid) was added to a 384-well black plate (Corning, 3573). Test compounds and control inhibitor JZL-195 (Cayman Chemical, 13668) were tested in 10-concentration IC50 mode with 3-fold serial dilution at a starting concentration of 100 μM and 10 μM, respectively. 300 nL or 30 nL of test compounds were delivered into a 384-well black plate (Corning, 3573) using a Labcyte Echo, followed by addition of 15 μL of FAAH enzyme (Cayman, 700302) in assay buffer. After a 5-minute pre-incubation at room temperature, 10 μL of AAMCA was added in assay buffer to start the reaction. Final concentration of FAAH enzyme is not specified and AAMCA substrate was used at the 20 μM. After these dilutions, the final concentration of the test compounds ranged from 100 μM to 5.08 nM or 10 μM down to 0.508 nM. The reaction was allowed to progress for 60 minutes, while the plate was read on an Envision plate reader at an Ex/Em of 350/460 nm with readings every minute. The data was analyzed in Microsoft Excel, using the slope between 30 and 59 minutes. The average of the no-enzyme wells (background) was subtracted from the data. The background-subtracted slope data was converted to % activity using the average of wells with enzyme and DMSO vehicle. IC50 values were calculated using GraphPad software (Sigmoidal dose response, variable slope equation).
Compounds listed in Table D2 were tested in the FAAH Counterscreen of Example 19

[5] = Method 2: Cayman Chemical MAGL enzyme, 10 nM, read-out: MAGL Potency (Detection Method)
[6] = Method A: starting concentration of 100 μM

human recombinant FAAH, sequence (O00519 whole entry): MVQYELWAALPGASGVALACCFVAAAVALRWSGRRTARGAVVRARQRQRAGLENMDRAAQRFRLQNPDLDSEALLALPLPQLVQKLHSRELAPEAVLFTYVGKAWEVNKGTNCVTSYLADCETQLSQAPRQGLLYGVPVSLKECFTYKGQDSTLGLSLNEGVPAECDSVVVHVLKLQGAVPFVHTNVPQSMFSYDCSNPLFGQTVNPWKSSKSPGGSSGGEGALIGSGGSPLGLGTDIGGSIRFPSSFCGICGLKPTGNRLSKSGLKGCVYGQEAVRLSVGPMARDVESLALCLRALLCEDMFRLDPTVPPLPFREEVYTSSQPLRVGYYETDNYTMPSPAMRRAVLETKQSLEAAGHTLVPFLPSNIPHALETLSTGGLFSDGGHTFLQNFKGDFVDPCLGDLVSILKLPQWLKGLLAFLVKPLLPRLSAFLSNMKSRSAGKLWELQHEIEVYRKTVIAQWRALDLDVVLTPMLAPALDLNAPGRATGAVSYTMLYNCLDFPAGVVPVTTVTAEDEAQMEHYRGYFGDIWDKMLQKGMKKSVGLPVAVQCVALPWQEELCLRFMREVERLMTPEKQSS

Compound: Cc1cc(C2CC3(C2)CN(C(=O)c2cc(O)ccc2F)C3)n(-c2ccccc2C)n1 [Compound 74, (2-fluoro-5-hydroxyphenyl) (6-(3-methyl-1-(o-tolyl)-1H-pyrazol-5-yl)-2-azaspiro[3.3]heptan-2-yl) methanone]
IC50 (human MAGL [1]): < 0.05 µM
A: degree to which MAGL enzymatic activity returned following washout (human MAGL [2]): 162
B: % MAGL activity returning after washout (human MAGL [2]): >50%
Mean 2AG Brain Concentration (2-AG levels in brain; IP 5 mg/kg): 13.13 nmol/g
Mean 2AG Brain Concentration (2-AG levels in brain; IP 15 mg/kg): 13.46 nmol/g
Mean 2AG Brain Concentration (2-AG levels in brain; IP 50 mg/kg): 42.35 nmol/g
Mean 2AG Brain Concentration (2-AG levels in brain; IP 150 mg/kg): 120.02 nmol/g
levels of 2-AG compared to baseline (vehicle treatment) (2-AG levels in brain; IP 5 and 15 mg/kg dose): elevated slightly
levels of 2-AG compared to baseline (vehicle treatment) (2-AG levels in brain; IP 50 and 150 mg/kg dose groups): significant increase
concentration at 0.5 h ([3]; brain, IP 5 mg/kg, read-out: Brain concentration range): 16 to 19 ng/g
concentration at 0.5 h ([3]; brain, IP 15 mg/kg, read-out: Brain concentration range): 25 to 67 ng/g
concentration at 0.5 h ([3]; brain, IP 50 mg/kg, read-out: Brain concentration range): 34 to 1250 ng/g
concentration at 0.5 h ([3]; brain, IP 150 mg/kg, read-out: Brain concentration range): 2410 to 12100 ng/g
Kp at 0.5 h ([3]; IP 5 mg/kg): 0.51 to 0.68
Kp at 0.5 h ([3]; IP 15 mg/kg): 0.16 to 0.44
Kp at 0.5 h ([3]; IP 50 mg/kg): 0.06 to 0.08
Kp at 0.5 h ([3]; IP 150 mg/kg): 0.07 to 0.2
concentration at 0.5 h ([3]; plasma, IP 5 mg/kg, read-out: Plasma concentration range): 12 to 186 ng/mL
concentration at 0.5 h ([3]; plasma, IP 15 mg/kg, read-out: Plasma concentration range): 70 to 414 ng/mL
concentration at 0.5 h ([3]; plasma, IP 50 mg/kg, read-out: Plasma concentration range): 447 to 14900 ng/mL
concentration at 0.5 h ([3]; plasma, IP 150 mg/kg, read-out: Plasma concentration range): 34900 to 70300 ng/mL
IC50 (human MAGL [4]; [5]): < 0.05 µM
IC50 (human MAGL [4]; Method 3: Reaction Biology MAGL enzyme, 10 nM, read-out: MAGL Potency (Detection Method)): < 0.05 µM
IC50 (human MAGL [4]; Method 4: Cayman Chemical MAGL enzyme, 15 nM, read-out: MAGL Potency (Detection Method)): 0.05 to 0.15 µM
IC50 (human MAGL [4]; Method 5: Cayman Chemical MAGL enzyme, 25 nM, read-out: MAGL Potency (Detection Method)): < 0.05 µM

Compound: Cc1ccccc1-n1nc(C2CC3(C2)CN(C(=O)c2cc(O)ccc2F)C3)cc1C [Compound 117]
IC50 (human recombinant FAAH; [6]): > 10 µM

Compound: Cc1cc(C2CC3(C2)CN(C(=O)c2ccccc2F)C3)n(-c2ccccc2C)n1 [Compound 122, (2-fluorophenyl)(6-(3-methyl-1-(o-tolyl)-1H-pyrazol-5-yl)-2-azaspiro[3.3]heptan-2-yl)methanone]
IC50 (human recombinant FAAH; [6]): > 10 µM

Compound: O=C(Oc1ccc([N+](=O)[O-])cc1)N1CCC(C(O)(c2ccc3c(c2)OCO3)c2ccc3c(c2)OCO3)CC1 [JZL-184, reference compound]
A: degree to which MAGL enzymatic activity returned following washout (human MAGL [2]): complete lack of return of MAGL enzymatic activity
B: % MAGL activity returning after washout (human MAGL [2]): <1%

Compound: (2-fluoro-5-hydroxyphenyl) (6-(3-methyl-1-(o-tolyl)-1H-pyrazol-5-yl)-2-azaspiro[3.3]hept-5-en-2-yl) methanone [Compound 120]
IC50 (human recombinant FAAH; [6]): > 10 µM
IC50 (human MAGL [4]; [5]): 0.15 to 0.5 µM

Continued, values first:

IC50 (human recombinant FAAH; [6]): > 10 µM
IC50 (human MAGL [4]; Method 2: Cayman Chemical MAGL enzyme, 10 nM, read-out: Potency (MAGL inhibition)): > 10 µM
Compound: COc1ccc(F)c(C(=O)N2CC3(CC(c4cc(C)nn4-c4ccccc4C)C3)C2)c1 [Compound 123, (2-fluoro-5-methoxyphenyl)(6-(3-methyl-1-(o-tolyl)-1H-pyrazol-5-yl)-2-azaspiro[3.3]heptan-2-yl)methanone]

IC50 (human recombinant FAAH; [6]): > 10 µM
Compound: Cc1cc(C2CC3(C2)CN(C(=O)c2cccc(O)c2)C3)n(-c2ccccc2C)n1 [Compound 125, (3-hydroxyphenyl)(6-(3-methyl-1-(o-tolyl)-1H-pyrazol-5-yl)-2-azaspiro[3.3]heptan-2-yl)methanone]

IC50 (human recombinant FAAH; [6]): > 10 µM
Compound: Cc1cc(C2CC3(C2)CN(C(=O)c2c(F)ccc(O)c2F)C3)n(-c2ccccc2C)n1 [Compound 127, (2,6-difluoro-3-hydroxyphenyl)(6-(3-methyl-1-(o-tolyl)-1H-pyrazol-5-yl)-2-azaspiro[3.3]heptan-2-yl)methanone]

IC50 (human recombinant FAAH; Method B: starting concentration of 10 μM): > 10 µM
A: degree to which MAGL enzymatic activity returned following washout (human MAGL [2]): 47
Compound: O=C(c1cc(O)ccc1F)N1CC2(CC(n3cc(C4CC4)c(-c4ccccc4F)n3)C2)C1 [Compound 493]
